# Measurements taken from ChEMBL document CHEMBL1201862, “PubChem BioAssay data set” (2004).
# Calls of active or inactive are those of the source.
# Experiments:
# [1] = Luminescence Cell-Based Dose Confirmation HTS to Identify Inhibitors of Platelet Dense Granule Release. [Related pubchem assays: 1663 (Primary HTS), 1678 (Summary of Project)]; format: functional
# [2] = target: T1, Luciferin 4-monooxygenase (Photinus pyralis, UniProt P08659); test: firefly luciferase enzyme inhibitors, dose response, biochemical, luminescence (AID 1891)
# T1 sequence (P08659 whole entry): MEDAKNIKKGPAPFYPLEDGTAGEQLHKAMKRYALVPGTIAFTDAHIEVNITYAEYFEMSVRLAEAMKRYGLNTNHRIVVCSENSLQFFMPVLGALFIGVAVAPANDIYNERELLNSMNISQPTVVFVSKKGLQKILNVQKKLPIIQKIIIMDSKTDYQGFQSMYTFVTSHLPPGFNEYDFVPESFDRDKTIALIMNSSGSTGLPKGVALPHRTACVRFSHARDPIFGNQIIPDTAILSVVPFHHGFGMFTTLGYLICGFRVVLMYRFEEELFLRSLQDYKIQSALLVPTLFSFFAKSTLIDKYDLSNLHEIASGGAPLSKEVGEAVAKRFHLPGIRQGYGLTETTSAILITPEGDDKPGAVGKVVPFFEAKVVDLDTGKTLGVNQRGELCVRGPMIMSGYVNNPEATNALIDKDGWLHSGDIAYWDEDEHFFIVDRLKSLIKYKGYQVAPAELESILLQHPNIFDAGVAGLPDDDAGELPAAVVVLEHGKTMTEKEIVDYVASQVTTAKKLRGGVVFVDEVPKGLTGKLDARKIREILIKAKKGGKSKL
# [3] = target: T1, Luciferin 4-monooxygenase; test: Counter Screen for Luciferase-based Assay Positives. [Related pubchem assays: 620, 618, 411 ]
# [4] = test system: HT-1080; test: cytotoxicity in HT1080 fibrosarcoma cells, cell-based, fluorescence readout (AID 620); format: functional; details: Homo sapiens
# [5] = target: T2, Sentrin-specific protease 6 (Homo sapiens, UniProt Q9GZR1); test: SAR Analysis of small molecule inhibitors of Sentrin-specific protease 6 (SENP6) using a Luminescent assay. [Related pubchem assays (depositor defined):AID2582, AID2599]; format: functional
# T2 sequence (Q9GZR1 whole entry): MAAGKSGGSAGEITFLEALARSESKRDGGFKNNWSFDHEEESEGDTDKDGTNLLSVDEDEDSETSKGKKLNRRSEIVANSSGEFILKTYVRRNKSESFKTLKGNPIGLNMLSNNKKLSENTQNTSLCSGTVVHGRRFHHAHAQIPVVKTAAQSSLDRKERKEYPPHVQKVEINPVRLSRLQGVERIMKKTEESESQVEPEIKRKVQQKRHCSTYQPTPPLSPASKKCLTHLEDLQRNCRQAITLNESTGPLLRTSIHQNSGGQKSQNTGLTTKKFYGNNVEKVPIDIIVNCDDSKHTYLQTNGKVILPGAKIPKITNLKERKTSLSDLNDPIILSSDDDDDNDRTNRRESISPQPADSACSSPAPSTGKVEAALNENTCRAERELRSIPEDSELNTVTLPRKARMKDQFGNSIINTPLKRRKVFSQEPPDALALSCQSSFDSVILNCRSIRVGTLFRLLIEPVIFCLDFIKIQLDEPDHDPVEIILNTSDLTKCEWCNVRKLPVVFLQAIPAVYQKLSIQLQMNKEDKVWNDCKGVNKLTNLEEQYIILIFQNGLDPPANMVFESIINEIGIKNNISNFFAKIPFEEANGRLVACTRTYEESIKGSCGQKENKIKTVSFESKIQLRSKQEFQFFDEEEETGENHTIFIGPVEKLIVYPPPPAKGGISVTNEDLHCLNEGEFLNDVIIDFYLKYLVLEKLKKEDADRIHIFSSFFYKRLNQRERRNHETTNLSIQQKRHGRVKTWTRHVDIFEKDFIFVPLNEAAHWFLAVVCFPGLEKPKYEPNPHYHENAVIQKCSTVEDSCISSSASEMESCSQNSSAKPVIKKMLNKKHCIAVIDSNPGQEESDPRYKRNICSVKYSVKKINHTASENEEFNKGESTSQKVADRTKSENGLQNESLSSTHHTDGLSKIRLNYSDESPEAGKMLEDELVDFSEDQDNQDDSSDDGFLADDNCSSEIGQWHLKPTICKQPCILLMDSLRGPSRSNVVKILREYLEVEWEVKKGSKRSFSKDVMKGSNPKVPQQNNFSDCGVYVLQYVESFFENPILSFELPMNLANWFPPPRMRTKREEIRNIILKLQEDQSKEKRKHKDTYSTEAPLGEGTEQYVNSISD
# [6] = target: T3, Sentrin-specific protease 7 (Homo sapiens, UniProt Q9BQF6); test: SENP7 protease inhibitors, SAR follow-up, biochemical, luminescence (AID 504497); format: functional
# T3 sequence (Q9BQF6 whole entry): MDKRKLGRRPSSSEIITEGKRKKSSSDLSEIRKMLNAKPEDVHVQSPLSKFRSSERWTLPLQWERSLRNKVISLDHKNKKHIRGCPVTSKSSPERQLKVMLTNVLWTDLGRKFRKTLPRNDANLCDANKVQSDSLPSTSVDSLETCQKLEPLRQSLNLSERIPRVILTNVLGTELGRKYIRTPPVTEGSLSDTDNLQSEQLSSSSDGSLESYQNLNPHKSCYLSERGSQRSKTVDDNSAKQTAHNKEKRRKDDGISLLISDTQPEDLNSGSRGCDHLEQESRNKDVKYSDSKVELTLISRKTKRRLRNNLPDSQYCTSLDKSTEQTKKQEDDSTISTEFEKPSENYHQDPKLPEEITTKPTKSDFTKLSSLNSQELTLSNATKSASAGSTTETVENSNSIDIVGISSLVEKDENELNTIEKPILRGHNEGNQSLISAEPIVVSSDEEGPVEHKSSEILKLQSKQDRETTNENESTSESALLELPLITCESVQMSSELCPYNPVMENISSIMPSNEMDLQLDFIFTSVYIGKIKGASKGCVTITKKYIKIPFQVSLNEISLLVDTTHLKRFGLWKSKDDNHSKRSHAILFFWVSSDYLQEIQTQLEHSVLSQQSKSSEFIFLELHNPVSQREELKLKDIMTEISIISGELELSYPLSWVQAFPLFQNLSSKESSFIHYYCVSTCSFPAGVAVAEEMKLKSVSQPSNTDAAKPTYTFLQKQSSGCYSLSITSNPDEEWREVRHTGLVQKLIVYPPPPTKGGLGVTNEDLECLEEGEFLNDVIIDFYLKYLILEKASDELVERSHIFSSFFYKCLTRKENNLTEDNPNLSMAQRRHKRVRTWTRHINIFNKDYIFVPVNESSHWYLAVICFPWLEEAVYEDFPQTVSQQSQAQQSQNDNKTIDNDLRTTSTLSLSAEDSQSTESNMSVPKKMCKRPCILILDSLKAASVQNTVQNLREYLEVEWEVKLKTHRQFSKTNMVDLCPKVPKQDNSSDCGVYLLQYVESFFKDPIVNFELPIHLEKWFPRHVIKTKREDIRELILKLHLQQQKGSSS
# [7] = target: T4, Sentrin-specific protease 8 (Homo sapiens, UniProt Q96LD8); test: SENP8 protease inhibitors, SAR follow-up, biochemical, luminescence (AID 504501); format: functional
# T4 sequence (Q96LD8 whole entry): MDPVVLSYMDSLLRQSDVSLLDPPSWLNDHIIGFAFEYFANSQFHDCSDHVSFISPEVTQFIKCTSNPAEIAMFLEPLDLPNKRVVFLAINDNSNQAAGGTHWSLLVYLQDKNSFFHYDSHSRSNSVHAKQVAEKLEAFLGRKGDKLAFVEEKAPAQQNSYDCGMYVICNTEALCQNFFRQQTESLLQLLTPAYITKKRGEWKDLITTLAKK
# [8] = target: T5, Estrogen receptor (Homo sapiens, UniProt P03372);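 note: potency for inhibiting coactivator peptide recruitment to the receptor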
# T5 sequence (P03372 whole entry): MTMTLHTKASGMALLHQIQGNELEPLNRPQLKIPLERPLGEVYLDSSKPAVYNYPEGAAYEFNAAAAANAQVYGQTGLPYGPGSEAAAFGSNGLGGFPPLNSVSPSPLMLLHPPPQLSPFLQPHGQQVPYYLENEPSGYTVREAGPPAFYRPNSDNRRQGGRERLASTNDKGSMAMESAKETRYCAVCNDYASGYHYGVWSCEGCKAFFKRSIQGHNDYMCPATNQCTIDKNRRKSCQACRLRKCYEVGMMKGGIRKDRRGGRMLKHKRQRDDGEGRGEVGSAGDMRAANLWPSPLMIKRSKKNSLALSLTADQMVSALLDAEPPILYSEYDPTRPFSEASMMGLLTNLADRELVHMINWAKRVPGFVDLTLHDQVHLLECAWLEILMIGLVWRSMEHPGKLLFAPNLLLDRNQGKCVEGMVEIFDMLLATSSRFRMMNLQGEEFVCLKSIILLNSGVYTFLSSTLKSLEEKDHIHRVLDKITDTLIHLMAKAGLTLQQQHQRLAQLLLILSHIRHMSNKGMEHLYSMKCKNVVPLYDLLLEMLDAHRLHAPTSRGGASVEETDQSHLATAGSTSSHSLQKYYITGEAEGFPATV
# [9] = target: T6, Caspase-3 (Homo sapiens, UniProt P42574); test: SAR Analysis of small molecule inhibitors of Sentrin-specific proteases (SENPs) using a Caspase-3 Selectivity assay. [Related pubchem assays (depositor defined):AID2540, AID2599, AID434973, AID489001]; format: functional
# T6 sequence (P42574 whole entry): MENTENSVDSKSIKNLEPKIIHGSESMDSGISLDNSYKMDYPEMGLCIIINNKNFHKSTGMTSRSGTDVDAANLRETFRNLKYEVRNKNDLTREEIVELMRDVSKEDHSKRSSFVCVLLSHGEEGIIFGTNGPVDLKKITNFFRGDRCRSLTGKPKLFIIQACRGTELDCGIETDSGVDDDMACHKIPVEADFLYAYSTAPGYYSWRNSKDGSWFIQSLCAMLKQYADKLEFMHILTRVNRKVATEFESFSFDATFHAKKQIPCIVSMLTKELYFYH
IC50 [5],IC50 [6],IC50 [8],IC50 [9],Compound,EC50 [1],EC50 [2],EC50 [3],EC50 [4],IC50 [7]
–,–,–,–,COC(=O)c1nn(-c2ccc(-c3ccccc3)cc2)cc1O,3.79 µM (active),1.93 µM (active),> 100 µM (not active),> 50 µM (not active),–
> 99 µM (inactive),> 99 µM (inactive),> 50 µM (not active),> 99 µM (inactive),CC1CCc2c(sc(NC(=O)c3ccc(Cn4cc(Br)cn4)o3)c2C(N)=O)C1 (stereo unspecified),–,–,–,–,> 99 µM (inactive)
–,–,–,–,Cc1cc(C)c(OCC(=O)Nc2cccc(O)c2)cc1C,–,–,3.52 µM (active),> 50 µM (not active),–
